Measured values from EP1743643A1, “New formulations of substituted pyrazoline compounds” (LABORATORIOS DEL DR. ESTEVE, S.A., priority 2005, dated 2007).

Key:
[1] = system: male mice B6 Lep ob/ob; test: In-vivo testing for regulation of triglycerides in blood, obese mice on high fat diet; details: for triglicerides blood levels (result in words): obese mice fed with high fat diet
From the text: The study was done using six weeks old male mice B6 Lep ob/ob, obtained from Charles River (France). Mice were divided in 3 groups : I (control), II (vehicle), III (example 0).
The animals of the group I received the standard diet (D-12450B, Research Diets, NJ, USA).
The animals of the groups II and III were fed with a High Fat Diet (D-12492, Research Diets, NJ, USA), in both cases for 7 weeks (References 1 and 2).
The animals of the groups III were fed with a High Fat Diet (D-12492, Research Diets, NJ, USA), in both cases for 7 weeks (References 1 and 2).
At the end of the feeding period of 7 weeks, it was started the treatment period (14 days): Group II mice received the vehicle (10 ml/kg/day, po, of the aqueous solution of acacia gum, 5% WN). Group III was administered with 30 mg/kg/day, po, of the inventive compound 5-(4-chlorophenyl)-1-(2,4-dichlorophenyl)-4,5-dihydro-pyrazole-3-carboxylic acid according to Example 0. Group I didn't received any treatment. The three groups of mice had the same diet than in the previous period.
At the end of the 14 days period of treatment, the blood levels of triglicerides of the animals were determined.
The analysis of the whole blood samples was done using test strips "Lipid panel" and the photometric Analyzer Cardio-Check Test System, from PA Instruments Polymer Technology Systems Indianapolis, IN-46268, USA (Distributed in Spain by Novalab Iberica S.A.L, Madrid, Spain).

[2] = biological target: T1, CB1-Receptor (Homo sapiens, UniProt P21554); test: In-vitro determination of affinity to CB1 receptor (radioligand [3H]-CP55940); format: binding
T1 construct: purchased Receptor Biology, Inc
T1 sequence (P21554 whole entry): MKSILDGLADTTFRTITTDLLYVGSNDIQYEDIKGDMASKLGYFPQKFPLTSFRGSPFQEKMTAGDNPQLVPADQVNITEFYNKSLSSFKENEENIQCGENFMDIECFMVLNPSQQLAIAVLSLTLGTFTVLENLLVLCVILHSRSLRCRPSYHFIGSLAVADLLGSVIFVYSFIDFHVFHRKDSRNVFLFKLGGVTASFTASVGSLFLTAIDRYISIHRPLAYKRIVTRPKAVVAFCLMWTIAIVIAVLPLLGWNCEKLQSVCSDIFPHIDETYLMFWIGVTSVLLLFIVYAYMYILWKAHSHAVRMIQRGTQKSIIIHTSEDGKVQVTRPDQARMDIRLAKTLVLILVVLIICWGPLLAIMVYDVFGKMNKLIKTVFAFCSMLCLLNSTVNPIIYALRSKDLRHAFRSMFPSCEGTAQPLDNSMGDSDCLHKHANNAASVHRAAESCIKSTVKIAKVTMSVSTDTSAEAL
Description: (§1) The in-vitro determination of the affinity of the inventive substituted pyrazoline compounds to CB1/CB2-Rezeptors is carried out as described in the publication of Ruth A. Ross, Heather C. Brockie et al., "Agonist-inverse agonist characterization at CB1 and CB2 cannabinoid receptors of L-759633, L759656 and AM630", British Journal of Pharmacology, 126, 665-672, (1999), whereby the transfected human CB1 and CB2 receptors of Receptor Biology, Inc. are used. The radioligand used for both receptors is [^3H]-CP55940. The respective parts of the description is hereby incorporated by reference and forms part of the present disclosure.
(§2) The affinity of the inventive substituted pyrazoline compounds to CB1/CB2 receptors was determined as described above.

[3] = biological target: T2, CB2-Receptor (Homo sapiens, UniProt P34972); test: In-vitro determination of affinity to CB2 receptor (radioligand [3H]-CP55940); format: binding
T2 construct: purchased Receptor Biology, Inc
T2 sequence (P34972 whole entry): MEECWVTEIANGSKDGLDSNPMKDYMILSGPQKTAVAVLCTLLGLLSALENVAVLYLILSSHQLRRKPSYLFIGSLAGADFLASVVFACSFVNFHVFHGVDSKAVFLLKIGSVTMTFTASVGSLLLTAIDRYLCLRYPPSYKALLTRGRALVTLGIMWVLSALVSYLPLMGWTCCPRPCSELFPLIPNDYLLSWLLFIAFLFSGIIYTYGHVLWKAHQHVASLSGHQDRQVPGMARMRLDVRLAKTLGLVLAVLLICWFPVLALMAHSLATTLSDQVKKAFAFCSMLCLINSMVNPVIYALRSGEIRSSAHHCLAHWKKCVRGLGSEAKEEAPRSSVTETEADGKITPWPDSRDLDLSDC
Description: as §1, §2

SMILES	Triglicerides, whole blood levels (mg/dl) ([1]; High Fat diet, 30 mg/kg/day po, 14 days of treatment, B6 Lep ob/ob mice)	triglicerides blood levels (result in words) [1]	triglicerides blood levels (result in words) ([1]; listed as Example 8)	Relative levels ([1]; triglicerides relative to Group I (standard diet, 100%), High Fat diet, 30 mg/kg/day po, 14 days) [%]	Ki [2] [µM]	Ki [3] [µM]
O=C(O)C1=NN(c2ccc(Cl)cc2Cl)C(c2ccc(Cl)cc2)C1 (stereo not shown) [Example 0, 5-(4-chlorophenyl)-1-(2,4-dichlorophenyl)-4,5-dihydro-pyrazole-3-carboxylic acid]	67.5 (N.S.) mg/dl	inhibitor of high blood levels of triglicerides	improved the triglicerides blood levels	110.6	–	–
O=C(NN1CCCCC1)C1=NN(c2ccc(Cl)cc2Cl)C(c2ccc(Cl)cc2)C1 (stereo not shown) [Example 1, N-piperidinyl-5-(4-chlorophenyl)-1-(2,4-dichlorophenyl)-4,5-dihydro-1H-pyrazole-3-carboxamide]	–	–	–	–	< 0.025	> 1
O=C(C1=NN(c2ccc(Cl)cc2Cl)C(c2ccc(Cl)cc2)C1)N1CCCCC1 (stereo not shown) [Example 5, [5-(4-Chloro-phenyl)-1-(2,4-dichloro-phenyl)-4,5-dihydro-1H-pyrazol-3-yl]-piperidin-1-yl-methanone]	–	–	–	–	–	~1
